Entries after “also recorded” stand apart in the source; their conditions may differ. Read-outs that look alike come from different tables or passages of the source.
B1: soluble human L-selectin (sCD62L) (receptor, UniProt P14151 39-332, looked up)
chain: WTYHYSEKPMNWQRARRFCRDNYTDLVAIQNKAEIEYLEKTLPFSRSYYWIGIRKIGGIWTWVGTNKSLTEEAENWGDGEPNNKKNKEDCVEIYIKRNKDAGKWNDDACHKLKAALCYTASCQPWSCSGHGECVEIINNYTCNCDVGYYGPQCQFVIQCEPLEAPELGTMDCTHPLGNFSFSSQCAFSCSEGTNLTGIEETTCGPFGNWSSPEPTCQVIQCEPLSAPDLGIMNCSHPLASFSFTSACTFICSEGTELIGKKKTICESSGIWSNPSPICQKLDKSFSMIKEGDYN
notes: also called soluble CD62L; recombinant CD62L

Key:
[1] = target: T1, CD62L-Fc binding to immobilized gp120 (Homo sapiens, UniProt P14151); assay: Soluble gp120 and CD62L ELISA in presence of inhibitors; conditions: 10 mM EDTA or 10 mg/ml carbohydrates
T1 construct: Soluble gp120 and CD62L ELISA; Fc (IgG); purchased R&D Systems, Inc
T1 sequence (P14151 39-332 limits assumed): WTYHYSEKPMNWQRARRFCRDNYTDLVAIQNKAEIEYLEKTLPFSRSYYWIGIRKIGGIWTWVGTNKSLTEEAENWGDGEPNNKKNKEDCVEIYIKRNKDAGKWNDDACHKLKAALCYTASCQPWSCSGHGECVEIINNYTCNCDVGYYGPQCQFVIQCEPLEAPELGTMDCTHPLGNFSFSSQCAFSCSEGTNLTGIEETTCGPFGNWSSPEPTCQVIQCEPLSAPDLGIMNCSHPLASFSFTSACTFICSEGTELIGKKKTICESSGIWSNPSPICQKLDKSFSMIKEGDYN
Method: Fifty ng of gp120 proteins were immobilized in individual wells of a 96-well plate for 1 hour at room temperature in coating buffer (10 mM Tris [pH7.5] and 2 mM CaCl2), blocked for 1 hour using blocking buffer (10 mM Tris [pH7.5], 0.1% Tween20), and washed three times with the same buffer. […] The plate was washed five times and readout was colorimetric using a TMB substrate and analyzed on a SPECTRAMAX™ Plus 384 spectrophotometer (Molecular Devices).

[2] = system: HIV-1BaL; assay: HIV-1BaL infection of activated CD8-depleted PBMCs; assay type: cell-based; conditions: for reduction of HIV-1BaL infection of CD4+ T cells: 5 μM
[3] = target: T2, soluble human L-selectin (sCD62L) (Homo sapiens, UniProt P14151); assay: SPR (Biacore 3000), gp120 injected over immobilized CD62L
[4] = system: HIV-1BaL; assay: Cell-cell transfer TZM-BL assay; conditions: TZM-BL co-incubated with HIV-1BaL-infected activated CD8-depleted PBMCs
Method: For the cell-cell transfer assay, TZM-BL and TZM-62L cells were seeded in a 96-well, flat-bottom plate at 3,000 cells/well three days before the assay. Three days post infection with HIV-1BaL, activated CD8-depleted PBMCs with and without the presence of BB-94 were added to the wells at the concentration of 80×10^3, 40×10^3, 20×10^3, 10×10^3, and 5×10^3 cells/well with the volume of each well equalized using the CD8− PBMC media. Additional BB-94 was added to both the cells infected in the presence of BB-94 and a sample of cells that only received BB-94 treatment for the cell-cell transfer assay. All conditions were prepared in triplicate. The cell mixtures were incubated at 37° C. for three days, followed by lysis and measurement of the subsequent luciferase expression as per the manufacturer's instructions.

[5] = system: HIV-1 viral release; assay: HIV-1 release assay, CD4+ T cells of HIV-1-infected individuals; assay type: cell-based
Method: PBMCs were obtained by leukapheresis and ficoll-hypaque centrifugation. CD4+ T cells were isolated using a cell separation system (StemCell Technologies). Cells were cultured with medium alone or with plate-bound anti-CD3 and soluble anti-CD28 antibody in the absence (DMSO) or presence of BB-94 in duplicate for 48 hours. The copy number of virion-associated HIV RNA in the above cell culture supernatants was determined using the […]-1 Test, Version 2.0 (Roche Diagnostics). The limit of detection for this system is 20 copies/ml.

[6] = target: B1; assay: SPR (Biacore 3000), CD62L ligand against CD62L
[7] = system: CD62L shedding; assay: CD62L shedding on activated CD8-depleted PBMCs; assay type: cell-based, human; conditions: 100 μM concentration; supernatant CD62L by ELISA
[8] = target: T3, gp120 of strain PBJ (SIV) (SIV, UniProt P19503 23-535); assay: SPR (Biacore 3000), gp120 injected over immobilized CD62L
T3 sequence: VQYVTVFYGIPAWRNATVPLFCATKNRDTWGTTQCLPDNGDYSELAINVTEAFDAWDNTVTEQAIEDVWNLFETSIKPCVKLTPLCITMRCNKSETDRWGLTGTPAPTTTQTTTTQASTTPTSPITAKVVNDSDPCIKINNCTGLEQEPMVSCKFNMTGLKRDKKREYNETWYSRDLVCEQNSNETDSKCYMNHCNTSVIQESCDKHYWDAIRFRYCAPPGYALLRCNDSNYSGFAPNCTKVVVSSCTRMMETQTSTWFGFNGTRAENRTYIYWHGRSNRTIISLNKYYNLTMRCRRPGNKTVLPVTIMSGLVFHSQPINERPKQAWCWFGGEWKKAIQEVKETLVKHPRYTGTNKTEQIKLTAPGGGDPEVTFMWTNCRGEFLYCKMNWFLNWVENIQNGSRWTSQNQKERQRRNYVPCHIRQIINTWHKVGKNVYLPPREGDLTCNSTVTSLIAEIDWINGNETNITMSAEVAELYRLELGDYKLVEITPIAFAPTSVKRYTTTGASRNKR

[9] = target: T2, soluble human L-selectin (sCD62L); assay type: binding; conditions: recombinant gp120 injected over immobilized CD62L, SPR; read-out: KD (nM), Solution KD for CD62L

## CC(=O)N[C@H]1C(O)O[C@H](CO)[C@@H](O)[C@@H]1O (stereo partly drawn) [N-acetylglucosamine, N-acetyl-D-glucosamine]
[1]
  gp120-CD62L binding in the presence of inhibitor: not

## O=C(O)CN(CCN(CC(=O)O)CC(=O)O)CC(=O)O [EDTA]
[2]; 5 mM EDTA
  HIV-1BaL infection, intracellular viral capsid p24: significantly reduced

## gp120 of strain Z185 (Clade C) (ligand)
[3]
  Kd: 58 nM

## sialyl-Lewis X
[1]
  gp120-CD62L binding in the presence of inhibitor: competed with gp120 for receptor binding
[1]; listed as Sialyl-Lewis
  gp120-CD62L binding in the presence of inhibitor: inhibited gp120 binding

## gp120 of strain 11530 (Clade A) (ligand)
[3]
  Kd: 35 nM

## OC[C@H]1O[C@@H](O[C@H]2[C@H](O)[C@@H](O)C(O)O[C@@H]2CO)[C@H](O)[C@@H](O)[C@H]1O (some centres unmarked) [lactose]
[1]
  gp120-CD62L binding in the presence of inhibitor: not

## gp120 of strain R66M (Clade A/C) (ligand)
[3]
  Kd: 18 nM

## CNC(=O)[C@H](Cc1ccccc1)NC(=O)[C@H](CC(C)C)[C@H](CSc1cccs1)C(=O)NO [BB-94, Batimastat]
[4]
  reduction in the viral infection of TZM-BL cells compared to the control: 80%
[5]; paired DMSO and BB-94 treatment, viremic and aviremic individuals
  inhibition of HIV-1 viral release among infected individuals: 30%-90%
[2]; day 6, intracellular p24
  reduction of HIV-1BaL infection of CD4+ T cells: 60%
[2]; day 11, intracellular p24
  reduction of HIV-1BaL infection of CD4+ T cells: 80%

## Heparin
[1]
  gp120-CD62L binding in the presence of inhibitor: competed with gp120 for receptor binding
[1]; listed as heparin
  gp120-CD62L binding in the presence of inhibitor: inhibited gp120 binding

## sialyllactose
[1]
  gp120-CD62L binding in the presence of inhibitor: inhibited

## soluble mucin (PSM-II) (ligand)
[6]
  Kd: 3800 nM

## recombinant gp120 from strain 20SF of Clade C (ligand)
[3]
  Kd: 53 nM

## gp120 of strain RV254 (Clade E) (ligand)
[3]
  Kd: 15 nM

## gp120 of strain CAP 88 (Clade C) (ligand)
[3]
  Kd: 71 nM

## O=P(O)(O)C(Cl)(Cl)P(=O)(O)O [DMDP, dichloromethylenediphosphonic acid]
[5]; anti-CD3 stimulated CD4+ T cells from viremic and aviremic individuals, 48 hours
  activation-induced viral release, virion-associated HIV-1 RNA in supernatant: neither DMSO nor DMDP affected the viral release
[2]; 100 μM concentration, intracellular p24
  HIV-1BaL infection: showed no effect
[7]
  CD62L shedding: showed no effect

## fucoidan
[1]
  gp120-CD62L binding in the presence of inhibitor: inhibited gp120 binding; also recorded: competed with gp120 for receptor binding

## B1
[8]
  Kd: 19 nM

B2: recombinant PSGL-1 (ligand, UniProt Q14242 42-295, looked up)
chain: QATEYEYLDYDFLPETEPPEMLRNSTDTTPLTGPGTPESTTVEPAARRSTGLDAGGAVTELTTELANMGNLSTDSAAMEIQTTQPAATEAQTTQPVPTEAQTTPLAATEAQTTRLTATEAQTTPLAATEAQTTPPAATEAQTTQPTGLEAQTTAPAAMEAQTTAPAAMEAQTTPPAAMEAQTTQTTAMEAQTTAPEATEAQTTQPTATEAQTTPLAAMEALSTEPSATEALSMEPTTKRGLFIPFSVSSVTHKG
notes: also called P-selectin glycoprotein ligand-1
[6]
  Kd: 50000 nM

B3: PBJ: recombinant gp120, strain PBJ, SIV (protein)
chain: VQYVTVFYGIPAWRNATVPLFCATKNRDTWGTTQCLPDNGDYSELAINVTEAFDAWDNTVTEQAIEDVWNLFETSIKPCVKLTPLCITMRCNKSETDRWGLTGTPAPTTTQTTTTQASTTPTSPITAKVVNDSDPCIKINNCTGLEQEPMVSCKFNMTGLKRDKKREYNETWYSRDLVCEQNSNETDSKCYMNHCNTSVIQESCDKHYWDAIRFRYCAPPGYALLRCNDSNYSGFAPNCTKVVVSSCTRMMETQTSTWFGFNGTRAENRTYIYWHGRSNRTIISLNKYYNLTMRCRRPGNKTVLPVTIMSGLVFHSQPINERPKQAWCWFGGEWKKAIQEVKETLVKHPRYTGTNKTEQIKLTAPGGGDPEVTFMWTNCRGEFLYCKMNWFLNWVENIQNGSRWTSQNQKERQRRNYVPCHIRQIINTWHKVGKNVYLPPREGDLTCNSTVTSLIAEIDWINGNETNITMSAEVAELYRLELGDYKLVEITPIAFAPTSVKRYTTTGASRNKR
[9]
  Kd: 19 ± 2 nM
